“Also recorded” adds a separate entry of the source. Like-named read-outs stand apart in the source and are kept apart here. Bridge positions count the residues as written; N and C are the ends. Ends that are not written are not given here.
What was measured:
TEAD [1] = biological target: T1, TEAD (Homo sapiens, UniProt P28347); assay: Surface display TEAD binding by flow cytometry (SDGF, 293F cells); settings: tetravalent staining, SDGF-TB1G1 cells
T1 construct: GST; made in house; host or cells: Hi5 insect cells (baculovirus, pIEX-BAC3 vector)

[2] = Reduction resistance of soluble optides (DTT or glutathione, RP-HPLC, LC/MS); type: physicochemical; settings: for reduction with 10 mM DTT: soluble optide, SDS-PAGE, mass spectrometry
YAP:TEAD [3] = biological target: T2, YAP:TEAD (Homo sapiens, UniProt P28347); type: biochemical; parameters: plasmid # 66853; host or cells: 293T cells, RIPA lysates
Target sequence in this assay (P28347 whole entry): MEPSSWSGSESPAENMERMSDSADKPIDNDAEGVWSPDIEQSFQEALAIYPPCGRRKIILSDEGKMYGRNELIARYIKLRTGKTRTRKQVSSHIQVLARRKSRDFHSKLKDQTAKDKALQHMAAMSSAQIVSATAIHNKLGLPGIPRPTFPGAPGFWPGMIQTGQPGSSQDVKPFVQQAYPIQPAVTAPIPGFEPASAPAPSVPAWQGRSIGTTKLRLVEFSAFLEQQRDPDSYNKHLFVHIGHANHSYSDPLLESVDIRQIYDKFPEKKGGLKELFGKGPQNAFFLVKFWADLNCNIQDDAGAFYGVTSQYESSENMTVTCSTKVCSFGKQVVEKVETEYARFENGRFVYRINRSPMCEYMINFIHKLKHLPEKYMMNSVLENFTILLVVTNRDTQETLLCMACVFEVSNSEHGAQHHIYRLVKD
YAP:TEAD [4] = biological target: T2, YAP:TEAD; type: binding; parameters: GST; made in house; host or cells: TEAD from Hi5 insect cells; settings: 293F cells expressing SDGF-YAP, 5 nM TEAD, 0-100 nM optide
Target sequence in this assay (P28347 209-426): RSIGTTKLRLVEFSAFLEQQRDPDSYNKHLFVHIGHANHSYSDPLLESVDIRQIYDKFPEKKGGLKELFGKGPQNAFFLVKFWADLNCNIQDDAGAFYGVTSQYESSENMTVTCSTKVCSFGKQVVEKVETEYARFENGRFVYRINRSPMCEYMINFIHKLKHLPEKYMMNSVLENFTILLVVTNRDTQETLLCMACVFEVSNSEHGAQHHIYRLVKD

[5] = Circular dichroism thermostability; type: physicochemical; settings: 25-30 µM in 10 mM phosphate buffer pH 7.4, heated 20 to 95 °C at 2 °C per min, 220 nm
Experimental: Protein secondary structures were assessed using circular dichrosim (CD). CD spectra were measured with a Jasco J-720W spectropolarimeter using a 1.0 mm path length cell. Protein samples (25-30 µM) in 10 mM phosphate buffer (pH 7.4) were analyzed at a wavelength range of 190 to 260 nm. […] Data are expressed in terms of relative ellipticity [θ], reported in mdeg.

[6] = type: physicochemical; settings: SYPRO Orange, 0.1 mg/mL in PBS, 20 to 95 °C
TEAD [7] = biological target: T1, TEAD; assay: Reduction resistance of surface displayed optides (GSH or DTT, then TEAD binding); type: physicochemical; settings: 10 mM glutathione for 5 mins, then TEAD binding (20 nM, 2-step stain)
chymotrypsin = biological target: T3, chymotrypsin (Bos taurus, UniProt P00766); assay: Protease stability in surface display (SDPR), chymotrypsin; type: in vitro ADME; settings: 40 µg mL^-1 chymotrypsin, SDPR-TB1G2 on 293F cells, then 5 mM DTT and iFluor 647 anti-6xHis staining
T3 construct: purchased Promega V1062

HeLa cells = assay: Cell penetration of DyLight 488 labelled optide in HeLa cells; type: cell-based; settings: 5 µM optide without dfTAT
trypsin [8] = biological target: T4, trypsin (Sus scrofa, UniProt P00761); assay: Protease stability in surface display (SDPR), trypsin; type: in vitro ADME; parameters: purchased Promega V5111; settings: 40 µg mL^-1 trypsin, SDPR-TB1G2 on 293F cells, then 5 mM DTT and iFluor 647 anti-6xHis staining
YAP:TEAD [9] = biological target: T2, YAP:TEAD; type: cell-based; parameters: endogenous in cells; host or cells: HeLa cells; settings: HeLa cells, 5 µM optide with 5 µM dfTAT, 90 min; versus dfTAT alone, P < 0.0001
Target sequence in this assay (P28347 whole entry): as the sequence (P28347 whole entry) above

trypsin [10] = biological target: T4, trypsin

T1 sequence (P28347 209-426): as the sequence (P28347 209-426) above
T4 sequence (P00761 9-231): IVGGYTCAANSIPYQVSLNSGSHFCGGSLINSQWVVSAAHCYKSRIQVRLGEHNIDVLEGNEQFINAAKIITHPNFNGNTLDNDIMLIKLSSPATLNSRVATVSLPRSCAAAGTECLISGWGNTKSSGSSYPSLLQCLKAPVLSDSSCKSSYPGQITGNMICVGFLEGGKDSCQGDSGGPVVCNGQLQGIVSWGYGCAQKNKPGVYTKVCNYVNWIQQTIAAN

CC[C@H](C)[C@@H]1NC(=O)[C@H](CC(=O)O)NC(=O)CNC(=O)[C@H](CCCCN)NC(=O)[C@H](CCCCN)NC(=O)[C@@H]2CSSC[C@@H](C(=O)N3CCC[C@H]3C(=O)O)NC(=O)[C@H](Cc3ccccc3)NC(=O)[C@H](CC(C)C)NC(=O)[C@@H]3CSSC[C@H](NC(=O)[C@H](CSSC[C@H](NC(=O)[C@H](CCC(=O)O)NC(=O)[C@H](CCCCN)NC(=O)[C@H](C)NC(=O)[C@H](CCCNC(=N)N)NC(=O)[C@H](CCC(=O)O)NC(=O)[C@@H](NC(=O)[C@H](Cc4ccc(O)cc4)NC(=O)[C@H](CCC(=O)O)NC(=O)[C@H](CC(=O)O)NC(=O)[C@@H]4CCCN4C(=O)[C@H](CO)NC(=O)CN)[C@@H](C)CC)C(=O)N2)NC(=O)[C@H](CCC(N)=O)NC1=O)C(=O)N[C@@H](CC(C)C)C(=O)N[C@@H](CCCNC(=N)N)C(=O)N[C@@H](Cc1ccc(O)cc1)C(=O)N[C@@H](Cc1ccccc1)C(=O)N[C@@H](CCC(=O)O)C(=O)N[C@@H](CCC(=O)O)C(=O)N[C@@H](CO)C(=O)NCC(=O)N[C@@H](CC(=O)O)C(=O)N1CCC[C@H]1C(=O)N[C@@H](CC(N)=O)C(=O)N[C@@H](C(C)C)C(=O)N[C@@H](CCSC)C(=O)N[C@@H](CC(C)C)C(=O)N[C@@H]([C@@H](C)CC)C(=O)N3 [TB1G1]
TEAD concentration at which binding was still detectible (TEAD [1]): 64 pM | TEAD concentration of peak signal:noise (TEAD [1]): 8 nM | reduction with 10 mM DTT [2]: complete | inhibition of FLAG-YAP co-immunoprecipitation with Myc-TEAD (YAP:TEAD [3]; 293T cell lysate, 30 min at 4 °C): dose-dependent inhibition | inhibition of YAP:TEAD-dependent cell staining (YAP:TEAD [4]): inhibited YAP:TEAD-dependent cell staining

CC[C@H](C)[C@H](NC(=O)[C@H](Cc1ccc(O)cc1)NC(=O)[C@H](CCC(=O)O)NC(=O)[C@H](CC(=O)O)NC(=O)[C@@H]1CCCN1C(=O)[C@H](CO)NC(=O)CN)C(=O)N[C@@H](CCC(=O)O)C(=O)N[C@@H](CCCNC(=N)N)C(=O)N[C@@H](C)C(=O)N[C@@H](CCCCN)C(=O)N[C@@H](CCC(=O)O)C(=O)N[C@H]1CSSC[C@@H]2NC(=O)[C@H](CCC(N)=O)NC(=O)[C@H]([C@@H](C)CC)NC(=O)[C@H](CC(=O)O)NC(=O)[C@H](CCC(N)=O)NC(=O)[C@H](CCCCN)NC(=O)[C@H](CCCCN)NC(=O)[C@H](CSSC[C@@H](C(=O)N3CCC[C@H]3C(=O)O)NC(=O)[C@H](Cc3ccccc3)NC(=O)[C@H](CC(C)C)NC(=O)[C@@H]3CSSC[C@H](NC2=O)C(=O)N[C@@H](CC(C)C)C(=O)N[C@@H](CCCNC(=N)N)C(=O)N[C@@H]([C@@H](C)CC)C(=O)N[C@@H](Cc2ccccc2)C(=O)N[C@@H](CC(=O)O)C(=O)N[C@@H](CCC(=O)O)C(=O)N[C@@H](CO)C(=O)N[C@@H](CCCCN)C(=O)N[C@@H](CC(=O)O)C(=O)N2CCC[C@H]2C(=O)N[C@@H](CC(N)=O)C(=O)N[C@@H](C(C)C)C(=O)N[C@@H](CCSC)C(=O)N[C@@H](CC(C)C)C(=O)N[C@@H]([C@@H](C)CC)C(=O)N3)NC1=O [TB1G2-W40P]
thermostability by circular dichroism [5]: identical before (Pre) and after (Post) incubation at 95 °C | melting temperature [6]: no melting temperature could be determined

CC[C@H](C)[C@H](NC(=O)[C@H](Cc1ccc(O)cc1)NC(=O)[C@H](CCC(=O)O)NC(=O)[C@H](CC(=O)O)NC(=O)[C@@H]1CCCN1C(=O)[C@H](CO)NC(=O)CN)C(=O)N[C@@H](CCC(=O)O)C(=O)N[C@@H](CCCNC(=N)N)C(=O)N[C@@H](C)C(=O)N[C@@H](CCCCN)C(=O)N[C@@H](CCC(=O)O)C(=O)N[C@H]1CSSC[C@@H]2NC(=O)[C@H](CCC(N)=O)NC(=O)[C@H]([C@@H](C)CC)NC(=O)[C@H](CC(=O)O)NC(=O)[C@H](CCC(N)=O)NC(=O)[C@H](CCCCN)NC(=O)[C@H](CCCCN)NC(=O)[C@H](CSSC[C@@H](C(=O)N[C@@H](Cc3c[nH]c4ccccc34)C(=O)O)NC(=O)[C@H](Cc3ccccc3)NC(=O)[C@H](CC(C)C)NC(=O)[C@@H]3CSSC[C@H](NC2=O)C(=O)N[C@@H](CC(C)C)C(=O)N[C@@H](CCCNC(=N)N)C(=O)N[C@@H]([C@@H](C)CC)C(=O)N[C@@H](Cc2ccccc2)C(=O)N[C@@H](CC(=O)O)C(=O)N[C@@H](CCC(=O)O)C(=O)N[C@@H](CO)C(=O)N[C@@H](CCCCN)C(=O)N[C@@H](CC(=O)O)C(=O)N2CCC[C@H]2C(=O)N[C@@H](CC(N)=O)C(=O)N[C@@H](C(C)C)C(=O)N[C@@H](CCSC)C(=O)N[C@@H](CC(C)C)C(=O)N[C@@H]([C@@H](C)CC)C(=O)N3)NC1=O [TB1G2]
thermostability by circular dichroism [5]: no evidence of altered TB1G2 structure up to 95 °C; also recorded: identical before (Pre) and after (Post) incubation at 95 °C | melting temperature [6]: no melting temperature could be determined | stability under intracellular reducing conditions, soluble ([2]; 10 mM glutathione): no effect on TB1G2 stability | reduction with 10 mM DTT [2]: incomplete reduction | stability under intracellular reducing conditions, surface displayed (TEAD [7]): no effect on TB1G2 stability | protease stability in surface display, chymotrypsin (chymotrypsin): no change in anti-6xHis staining | cell penetration (HeLa cells): failed to demonstrate cell penetration; also recorded: not yet cell penetrant | protease stability in surface display, trypsin (trypsin [8]): no change in anti-6xHis staining | YAP:TEAD PLA speckles per nucleus (YAP:TEAD [9]): reduction in speckles | inhibition of YAP:TEAD-dependent cell staining (YAP:TEAD [4]): much higher potency

Beta/delta-agatoxin-6 [Peptide 3]
Trypsin Resistance (trypsin [10]): 102%

GSAPPCKRDVDCSFECPKGGFCNDRLGTCDCF (also: bicyclic or more (positions not given here)) [Peptide 1, Putative defensin-like protein 257]
Trypsin Resistance (trypsin [10]): 90%

GSDLVCYCRKRGCKRREHMNGTCRRGHLMYTLCCR (also: bicyclic or more (positions not given here)) [Peptide 10, Alpha-defensin 13]
Trypsin Resistance (trypsin [10]): 43%

GSGICACRRRFCLNFEQFSGYCRVNGARYVRCCSRR (also: bicyclic or more (positions not given here)) [Peptide 9, Corticostatin-6]
Trypsin Resistance (trypsin [10]): 65%

GSKDYCPGICNVAAVPDCDTLCISLGYSGGYCRAGRICCCNPK (also: bicyclic or more (positions not given here)) [Peptide 7, Uncharacterized protein]
Trypsin Resistance (trypsin [10]): 96%

GSKEICERPNGSCRDFCLETEIHVGRCLNSQPCCLPL (also: bicyclic or more (positions not given here)) [Peptide 4, Beta-defensin 108B]
Trypsin Resistance (trypsin [10]): 95%

GSPMTCEQAMASCEHTMCGYCQGPLYMTCIGITTDPECGLP (also: bicyclic or more (positions not given here)) [Peptide 6, Mating pheromone Er-2/Er-9]
Trypsin Resistance (trypsin [10]): 97%

GSRGQCWSYSNCRAVCRDEGYVSGHCNYFGGACWCAS (also: bicyclic or more (positions not given here)) [Peptide 13, Putative uncharacterized protein]
Trypsin Resistance (trypsin [10]): 52%

GSSVPCVSTRGSCKPPAPACCHPCASCQCRFFRSACSCRVLNVNC (also: bicyclic or more (positions not given here)) [Peptide 12, Agouti-signaling protein]
Trypsin Resistance (trypsin [10]): 60%

GSVDGCQETCTKMIRCQFFTYSLFPEDCRGEKCKCSLR (also: bicyclic or more (positions not given here)) [Peptide 16, Plasma kallikrein]
Trypsin Resistance (trypsin [10]): 50%

GSYTDCTESGQNLCLCEGSNVCGKGNKCILGSQGKDNQCVTG (also: bicyclic or more (positions not given here)) [Peptide 5, Hirudin-PA]
Trypsin Resistance (trypsin [10]): 75%

H-GSPDEYIERAKECCKKGDIQCCLRYFEESGDPNVMLICLACP-OH (disulfide 13-21, 14-41, 22-38) [TB1G1-F38A]
inhibition of FLAG-YAP co-immunoprecipitation with Myc-TEAD (YAP:TEAD [3]): not

Turripeptide IX-01 [Peptide 8]
Trypsin Resistance (trypsin [10]): 96%

U9-theraphotoxin-Cj1a [Peptide 11]
Trypsin Resistance (trypsin [10]): 46%

Venom defensin-like peptide A [Peptide 2]
Trypsin Resistance (trypsin [10]): 84%

— paper PMC5740061 (Nature Communications, 2017)
